US20250325562A1, “Intravenous Ganaxolone Formulations and Methods of Use in Treating Status Epilepticus and Other Seizure Disorders” (MARINUS PHARMACEUTICALS, INC., priority 2015, published 2025)
Like-named read-outs stand apart in the source and are kept apart here.

Tests used:
[1] = Ganaxolone concentration reached in 30% Captisol solutions (with additives or dry mixing), HPLC; format: physicochemical
Experimental: 500 μl of 10% aqueous Polysorbate 80 solution in a 20 ml scintillation vial were combined with powdered ganaxolone (50 mg). The mixture was stirred to wet the ganaxolone. Solid Captisol (3.2 g), sufficient to form a 30% Captisol solution, was then added to the vial and the vial contents were mixed. Deionized water (8.0 g) was then added and the mixture was vigorously stirred at room temperature overnight to obtain a hazy solution. An aliquot was filtered through 0.2 μm syringe filter and ganaxolone concentration was assayed by HPLC to be 4.28 mg/ml.
Ganaxolone was vigorously stirred in 30% Captisol in the presence of 10% v/v ethanol overnight to obtain a 3.16 mg/ml ganaxolone solution. • (b) Ganaxolone-30% Captisol solution containing glycerin
Ganaxolone was vigorously stirred in 30% Captisol in the presence of 10% v/v glycerin overnight to obtain a 3.45 mg/ml ganaxolone solution. • (c) Ganaxolone-30% Captisol solution containing propylene glycol
Ganaxolone was vigorously stirred in 30% Captisol in the presence of 10% v/v propylene glycol overnight to obtain a 2.53 mg/ml ganaxolone solution.
Powdered ganaxolone (125 mg) was charged into 100 ml beaker. Captisol powder (7.9 g) was then added to the beaker. The mixture was mixed by stirring with a magnetic stir bar for 5 min. Deionized water (20.1 g) was weighed into a plastic cup. About half of the water was added into the beaker and the contents were vigorously stirred for 30 minutes to obtain a homogeneous mixture. The remaining water was added and the beaker was covered with paraffin film.

[2] = Phase solubility of ganaxolone in aqueous CAPTISOL solutions, HPLC; format: physicochemical; conditions: for Ganaxolone conc. by HPLC: 42 hours equilibrium
Experimental: Ganaxolone solubility in aqueous CAPTISOL solution was first determined by constructing a phase solubility diagram. Excess ganaxolone was shaken in aqueous CAPTISOL solutions of known concentrations for 42 hours to reach equilibrium. The ganaxolone solution was filtered into HPLC vials through 0.45 μm syringe filters. The filtrates were assayed for ganaxolone concentration by HPLC. Moles of ganaxolone in solution against moles of CAPTISOL added were plotted.

[3] = cited from earlier work
[4] = in vivo; cited from earlier work

With `CC(=O)[C@H]1CC[C@H]2[C@@H]3CC[C@H]4C[C@](C)(O)CC[C@]4(C)[C@H]3CC[C@]12C` [Ganaxolone, 3α-hydroxy, 3β-methyl-5α-pregnan-20-one] the “ganaxolone concentration by HPLC” value ([1]; 30% Captisol with Polysorbate 80, stirred overnight at room temperature, 0.2 μm filtered) was 4.28 mg/mL, the “ganaxolone concentration of solution” value ([1]; 30% Captisol, 10% v/v ethanol, stirred overnight) was 3.16 mg/mL and the “ganaxolone concentration of solution” value ([1]; 30% Captisol, 10% v/v glycerin, stirred overnight) was 3.45 mg/mL. The “ganaxolone concentration of solution” value ([1]; 30% Captisol, 10% v/v propylene glycol, stirred overnight) was 2.53 mg/mL, the “ganaxolone concentration after prolonged stirring” value ([1]; 30% Captisol, dry mixing, after 90 hours of stirring) was “unchanged” and the “ganaxolone concentration of solution” value ([1]; 30% Captisol, prior dry mixing of ganaxolone and Captisol, stirred overnight at room temperature) was 4.61 mg/mL. For the same compound, the Ganaxolone conc. ([2]; CAPTISOL 0 mg/mL) was 0 mM, the “Ganaxolone conc. by HPLC” value ([2]; CAPTISOL 0 mg/mL) was “Not detectable” and the Ganaxolone conc. ([2]; CAPTISOL 25 mg/mL (0.0116 M)) was 1.3 mM. The “Ganaxolone conc. by HPLC” value ([2]; CAPTISOL 25 mg/mL (0.0116 M)) was 0.43 mg/mL, the Ganaxolone conc. ([2]; CAPTISOL 50 mg/mL (0.0231 M)) was 2.7 mM and the “Ganaxolone conc. by HPLC” value ([2]; CAPTISOL 50 mg/mL (0.0231 M)) was 0.88 mg/mL. The Ganaxolone conc. ([2]; CAPTISOL 100 mg/mL (0.0462 M)) was 5.6 mM, the “Ganaxolone conc. by HPLC” value ([2]; CAPTISOL 100 mg/mL (0.0462 M)) was 1.86 mg/mL and the Ganaxolone conc. ([2]; CAPTISOL 200 mg/mL (0.0925 M)) was 10.9 mM. The “Ganaxolone conc. by HPLC” value ([2]; CAPTISOL 200 mg/mL (0.0925 M)) was 3.63 mg/mL, the Ganaxolone conc. ([2]; CAPTISOL 400 mg/mL (0.185 M)) was 23.1 mM and the “Ganaxolone conc. by HPLC” value ([2]; CAPTISOL 400 mg/mL (0.185 M)) was 7.68 mg/mL. The half-life ([3]; human plasma following oral administration) was “approximately 20 hours” and the Tmax ([3]; therapeutic blood levels are reached quickly) was “short”.

For `CC(=O)[C@H]1CC[C@H]2[C@@H]3CC[C@H]4C[C@H](O)CC[C@]4(C)[C@H]3CC[C@]12C` [Allopregnanolone], the half-life [4] is given as “very short”.
